Measurements as given in patent publication US7572818B2, “2-pyridylethylbenzamide derivative” (Bayer Cropscience S.A., priority 2002, dated 2009).

Assays:
Alternaria brassicae = experiment: In vivo test of activity on Alternaria brassicae (crucifer black spot) on radish; conditions: 330 ppm, preventive spray 24 h before inoculation
Protocol: In Vivo Test of Activity on Alternaria brassicae (Crucifer Black Spot)
(§1) An aqueous solution of the active material to be tested is prepared at a concentration of 2 g/l by grinding in solution 1 or solution 2:
(§2) • Water • Tween 80 diluted to 10% in water: 5 μl/mg of active material • Clay in a sufficient amount for active material+clay to equal 100 mg; Solution 2
(§3) Concentrated solution containing surfactants and adjuvants conventionally used: 200 μl/mg of active material.
(§4) The aqueous solution is diluted with water so as to obtain the desired concentration.
Radishes of the Pernot variety are sown in a 50/50 pozzolan/peat substrate and maintained at 18-22° C. The treatment is carried out by spraying the aqueous suspension. The untreated control plants are sprayed with water. 24 hours after treatment, the plants are inoculated by spraying a solution of Alternaria brassicae spores (40 000 spores/ml) originating from a 12-day culture.
The radish plants are then maintained at 18-20° C. in a humid atmosphere. The effectiveness of the products is evaluated relative to the control plants after seven to eight days of incubation.
(§5) The effectiveness of the molecules is estimated, at 500 g/ha, 250 g/ha or 330 ppm, by the percentage of control relative to untreated plants. Under these conditions, good effectiveness is defined as more than 80% effectiveness. Average effectiveness is defined as an effectiveness between 50 and 80%. Poor effectiveness is defined as an effectiveness between 10 and 50% and zero effectiveness is defined as less than 10% effectiveness.

Pyrenophora teres = experiment: In vivo test of activity on Pyrenophora teres (barley net blotch); conditions: 330 ppm, preventive spray 24 h before inoculation
Protocol: In Vivo Test of Activity on Pyrenophora teres (Barley Net Blotch)
as §1, §2, §3, §4
Barley plants of the Express variety are sown in a 50/50 pozzolan/peat substrate and maintained at 12° C. The treatment is carried out at the 1-leaf stage (10 cm) by spraying the aqueous suspension. The untreated control plants are sprayed with water.
24 hours after treatment, the plants are inoculated by spraying a solution of Pyrenophora teres spores (10 000 spores/ml) originating from a 10-day culture.
The barley plants are then maintained at 18° C. in a humid atmosphere. The effectiveness of the products is evaluated relative to the control plants after eight to fifteen days of incubation.
as §5

Botrytis cinerea = experiment: In vivo test of activity on Botrytis cinerea on cucumber; conditions: preventive spray 24 h before inoculation; for pest or weed control at 250 g/ha: Botrytis cinerea, topical, read-out: effectiveness (percentage of control relative to untreated plants)
Protocol: In Vivo Test of Activity on Botrytis cinerea on Cucumber
as §1, §2, §3, §4
Cucumbers of the Marketer variety are sown in a 50/50 pozzolan/peat substrate and maintained at 18-22° C. The treatment is carried out by spraying the aqueous suspension. The untreated control plants are sprayed with water.
24 hours after treatment, the plants are inoculated by spraying a solution of Botrytis cinerea spores (150 000 spores/ml) originating from a 15-day culture.
The cucumber plants are then maintained at 11-15° C. in a humid atmosphere. The effectiveness of the products is evaluated relative to the control plants after seven to eight days of incubation.
as §5

SMILES | effectiveness (percentage of control relative to untreated plants) (Alternaria brassicae) | further results
Cc1ccc(C(=O)NCCc2ncc(C(F)(F)F)cc2Cl)c(C)c1 [Compound A-61] | good to average | effectiveness (percentage of control relative to untreated plants) (Pyrenophora teres): good to average
COc1ccc(C(=O)NCCc2ncc(C(F)(F)F)cc2Cl)c(OC)c1 [Compound A-83] | good to average | effectiveness (percentage of control relative to untreated plants) (Pyrenophora teres): good to average
COc1cc(Cl)ccc1C(=O)NCCc1ncc(C(F)(F)F)cc1Cl [Compound A-87] | good to average | effectiveness (percentage of control relative to untreated plants) (Pyrenophora teres): good to average
O=C(NCCc1ncc(C(F)(F)F)cc1Cl)c1ccccc1OC(F)(F)F [Compound A-89] | good to average | effectiveness (percentage of control relative to untreated plants) (Pyrenophora teres): good to average
O=C(NCCc1ncc(C(F)(F)F)cc1Cl)c1ccc([N+](=O)[O-])cc1Cl [Compound A-96] | good to average | effectiveness (percentage of control relative to untreated plants) (Pyrenophora teres): good to average
Cc1cc(F)ccc1C(=O)NCCc1ncc(C(F)(F)F)cc1Cl [Compound A-117] | good to average | effectiveness (percentage of control relative to untreated plants) (Pyrenophora teres): good to average
O=C(NCCc1ncc(C(F)(F)F)cc1Cl)c1ccc(Cl)c(F)c1Cl [Compound A-125] | good to average | effectiveness (percentage of control relative to untreated plants) (Pyrenophora teres): good to average
CS(=O)(=O)c1cc(Br)ccc1C(=O)NCCc1ncc(C(F)(F)F)cc1Cl [Compound A-133] | good to average | effectiveness (percentage of control relative to untreated plants) (Pyrenophora teres): good to average
Cc1ccc(Br)c(C(=O)NCCc2ncc(C(F)(F)F)cc2Cl)c1 [Compound A-134] | good to average | effectiveness (percentage of control relative to untreated plants) (Pyrenophora teres): good to average
CSc1cc(F)ccc1C(=O)NCCc1ncc(C(F)(F)F)cc1Cl [Compound A-140] | good to average | effectiveness (percentage of control relative to untreated plants) (Pyrenophora teres): good to average
CSc1ccc(C(=O)NCCc2ncc(C(F)(F)F)cc2Cl)c(Br)c1 [Compound A-150] | good to average | 
CC(C)c1c(Br)cccc1C(=O)NCCc1ncc(C(F)(F)F)cc1Cl [Compound A-151] | good to average | 
CCc1cc(Br)ccc1C(=O)NCCc1ncc(C(F)(F)F)cc1Cl [Compound A-152] | good to average | 
Cc1cc(C(=O)NCCc2ncc(C(F)(F)F)cc2Cl)c([N+](=O)[O-])cc1C [Compound A-156] | good to average | 
O=C(NCCc1ncc(C(F)(F)F)cc1Cl)c1ccc(I)c(Br)c1 [Compound A-158] | good to average | 
Cc1c(C(=O)NCCc2ncc(C(F)(F)F)cc2Cl)ccc(Cl)c1F [Compound A-162] | good to average | 
CSc1c(F)ccc(C(=O)NCCc2ncc(C(F)(F)F)cc2Cl)c1F [Compound A-165] | good to average | 
CSc1ccccc1C(=O)NCCc1ncc(C(F)(F)F)cc1Cl [Compound A-167] | good to average | effectiveness (percentage of control relative to untreated plants) (Pyrenophora teres): good to average
CSc1c(Br)ccc(C(=O)NCCc2ncc(C(F)(F)F)cc2Cl)c1F [Compound A-168] | good to average | 
O=C(NCCc1ncc(C(F)(F)F)cc1Cl)c1cc(I)c(O)c(I)c1 [Compound A-169] | good to average | 
COc1cc([N+](=O)[O-])ccc1C(=O)NCCc1ncc(C(F)(F)F)cc1Cl [Compound A-171] | good to average | 

SMILES | effectiveness (percentage of control relative to untreated plants) (Alternaria brassicae) | further results
O=C(NCCc1ncc(C(F)(F)F)cc1Cl)c1cc(F)ccc1C(F)(F)F [Compound A-172] |  | effectiveness (percentage of control relative to untreated plants) (Botrytis cinerea; 330 ppm): good to average
O=C(NCCc1ncc(C(F)(F)F)cc1Cl)c1ccc(Cl)cc1I [Compound A-176] | good to average | 
Cc1ccc(I)c(C(=O)NCCc2ncc(C(F)(F)F)cc2Cl)c1 [Compound A-177] | good to average | 
Cc1cccc(C(=O)NCCc2ncc(C(F)(F)F)cc2Cl)c1Cl [Compound A-178] | good to average | 
Cc1cccc(C(=O)NCCc2ncc(C(F)(F)F)cc2Cl)c1I [Compound A-179] | good to average | 
Cc1cccc(C(=O)NCCc2ncc(C(F)(F)F)cc2Cl)c1Br [Compound A-180] | good to average | 
COc1cc(Cl)c(C(=O)NCCc2ncc(C(F)(F)F)cc2Cl)cc1OC [Compound A-181] | good to average | 
Cc1ccc(Cl)c(C(=O)NCCc2ncc(C(F)(F)F)cc2Cl)c1F [Compound A-182] | good to average | 
O=C(NCCc1ncc(C(F)(F)F)cc1Cl)c1cc(Br)ccc1I [Compound A-183] | good to average | 
Cc1ccc(Cl)c(C(=O)NCCc2ncc(C(F)(F)F)cc2Cl)c1 [Compound A-184] | good to average | 
O=C(NCCc1ncc(C(F)(F)F)cc1Cl)c1cc(I)ccc1Cl [Compound A-185] | good to average | 
Cc1ccc(F)cc1C(=O)NCCc1ncc(C(F)(F)F)cc1Cl [Compound A-186] | good to average | 
O=C(NCCc1ncc(C(F)(F)F)cc1Cl)c1cc(Cl)ccc1I [Compound A-188] | good to average | 
COc1cc(I)c(C(=O)NCCc2ncc(C(F)(F)F)cc2Cl)cc1OC [Compound A-189] | good to average | 
Cc1cccc(C(=O)NCCc2ncc(C(F)(F)F)cc2Cl)c1N [Compound A-194] | good to average | 
O=C(NCCc1c(Cl)cc(C(F)(F)F)c[n+]1[O-])c1ccccc1C(F)(F)F [Compound B-1] | good to average | effectiveness (percentage of control relative to untreated plants) (Pyrenophora teres): good to average
CCNC(=O)C(Cc1ncc(C(F)(F)F)cc1Cl)NC(=O)c1ccccc1 (centres unmarked) [compound 304, N-{1-ethylcarbamoyl-2-[3-chloro-5-(trifluoromethyl)-2-pyridinyl]ethyl}-benzamide, reference compound] |  | pest or weed control at 250 g/ha (Botrytis cinerea): < 10%
CCNC(=O)C(Cc1ncc(C(F)(F)F)cc1Cl)NC(=O)c1ccc(Cl)cc1 (centres unmarked) [compound 306, N-{1-ethylcarbamoyl-2-[3-chloro-5-(trifluoromethyl)-2-pyridinyl]ethyl}-4-chlorobenzamide, reference compound] |  | pest or weed control at 250 g/ha (Botrytis cinerea): < 10%
CCNC(=O)C(Cc1ncc(C(F)(F)F)cc1Cl)NC(=O)c1ccccc1Br (centres unmarked) [compound 310, N-{1-ethylcarbamoyl-2-[3-chloro-5-(trifluoromethyl)-2-pyridinyl]ethyl}-2-bromobenzamide, reference compound] |  | pest or weed control at 250 g/ha (Botrytis cinerea): < 10%
CNC(=O)C(Cc1ncc(C(F)(F)F)cc1Cl)NC(=O)c1ccccc1 (centres unmarked) [compound 314, N-{1-methylcarbamoyl-2-[3-chloro-5-(trifluoromethyl)2-pyridinyl]ethyl}-benzamide, reference compound] |  | pest or weed control at 250 g/ha (Botrytis cinerea): < 10%
